These results are taken from ChEMBL document CHEMBL1201862, “PubChem BioAssay data set” (2004).

Test systems include A498; HCC 2998; HT-29; IGROV-1; K562; NCI-H23; OVCAR-8; SF-295; SF-539; SK-MEL-28; SK-MEL-2; SK-MEL-5; SNB-19; SNB-75; SR; U-251; UO-31; HL-60; NCI-H522; SN12C.
Test in all cases: DTP human tumour cell line panel, 48 h

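Test compounds were applied to cells in 96-well plates for 48 hours at 5 doses. Abbreviation: GI50, concentration required for 50% inhibition of growth.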 Activity calls are given as the source filed them. Cut-off read from the data, not from the text of the source: active = GI50 up to about 1.1 µM and inactive = higher. A value given as a limit tells only on which side of the number the result lay.

A word on the GI50: it is the concentration at which growth is held to half of that of the control. For `CC(=O)O[C@H]1CN(S(=O)(=O)c2ccc(C)cc2)C[C@@H]1C1CCCCC1`, the GI50 was > 100 µM (inactive) in the test on A498; 45.6 µM (inactive) in the test on HCC 2998; 24.4 µM (inactive) with HT-29; 18.8 µM (inactive) in the test with IGROV-1; 32.9 µM (inactive) in the test on K562; 36.3 µM (inactive) with NCI-H23. Besides, the GI50 in the test on OVCAR-8 was 22.7 µM (inactive); with SF-295, 14.4 µM (inactive); with SF-539 it was < 0.01 µM (active); in the test with SK-MEL-28, 20.5 µM (inactive); with SK-MEL-2, 18.7 µM (inactive); with SK-MEL-5, 10.6 µM (inactive). Also, the GI50 in the test on SNB-19 was 55.3 µM (inactive); in the test on SNB-75 it was 24.9 µM (inactive); in the test on SR, 18.6 µM (inactive); in the test with U-251 it was 29.7 µM (inactive); with UO-31, 38.2 µM (inactive).

For the compound `O=C(Nc1ccc(C(F)(F)F)cc1[N+](=O)[O-])C(=O)Nn1c(S)nc2ccccc2c1=O`, the GI50 in the test with A498, in the test with HCC 2998, with HL-60, with HT-29, with IGROV-1 and in the test on K562 was > 100 µM (inactive) in each case. For the same compound, the GI50 in the test with NCI-H23, with NCI-H522, with OVCAR-8, in the test with SF-295, in the test with SF-539 and in the test on SK-MEL-28 was > 100 µM (inactive) in each case. The GI50 in the test with SK-MEL-2, in the test on SK-MEL-5, in the test with SN12C, in the test on SNB-19, in the test on SNB-75 and in the test on SR was > 100 µM (inactive) throughout. In addition, the GI50 with U-251 and in the test with UO-31 was > 100 µM (inactive) throughout.

As to `Nc1nc(SCCC/C=C/B(O)O)nc2c1ncn2C1OC(CO)C(O)C1O` (stereo unspecified), the GI50 with A498, in the test with HCC 2998, in the test with HL-60, in the test on HT-29, in the test with IGROV-1 and in the test with K562 was > 243 µM (inactive) in each case. Also, the GI50 with NCI-H23, in the test on NCI-H522, in the test on OVCAR-8, with SF-295, in the test on SF-539 and in the test on SK-MEL-28 was > 243 µM (inactive) throughout. Also, the GI50 with SK-MEL-2, in the test with SK-MEL-5, in the test with SN12C, with SNB-19, in the test on SNB-75 and with SR was > 243 µM (inactive) each time. In the test on U-251, the GI50 was > 243 µM (inactive).

Regarding `CCO/N=[N+](\[O-])N(CC)CC`, the GI50 in the test with A498, in the test with HCC 2998, with HL-60, with HT-29, in the test with IGROV-1 and with K562 was > 100 µM (inactive) each time. In addition, the GI50 in the test on NCI-H23, with NCI-H522, in the test on OVCAR-8, with SF-295, in the test on SF-539 and in the test on SK-MEL-28 was > 100 µM (inactive) throughout. In addition, the GI50 in the test with SK-MEL-2, in the test with SK-MEL-5, with SN12C, in the test on SNB-19, in the test with SR and in the test on UO-31 was > 100 µM (inactive) each time.

Take `C=C1C(=O)O[C@H]2C1[C@H](OC(=O)/C(C)=C\COC(C)=O)C[C@]1(CO1)[C@@H]1[C@H](O)[C@H]3O[C@@]3(C)[C@@H]12` (stereo partly specified): the GI50 in the test with A498 was 61.5 µM (inactive); in the test with HCC 2998, 15 µM (inactive); in the test with HL-60, 13.9 µM (inactive); in the test on HT-29 it was 19.1 µM (inactive); in the test with IGROV-1, 24 µM (inactive); in the test on K562, 15.2 µM (inactive). The GI50 in the test on NCI-H23 was 14.3 µM (inactive); with NCI-H522, 8.87 µM (inactive); in the test on OVCAR-8, 24.8 µM (inactive); in the test with SF-295, > 61 µM (inactive); with SF-539, 27 µM (inactive); in the test with SK-MEL-28, 15.5 µM (inactive). Besides, the GI50 in the test on SK-MEL-2 was 20.7 µM (inactive); in the test on SK-MEL-5, 18.6 µM (inactive); in the test on SN12C, 22.3 µM (inactive); with SNB-19 it was > 100 µM (inactive); in the test with SNB-75, 37 µM (inactive); with U-251 it was 21.7 µM (inactive). Moreover, the GI50 in the test on UO-31 is > 88.7 µM (inactive).

As to `COc1cc([N+](=O)[O-])ccc1NC(=O)C(F)(F)F`, the GI50 with A498 was > 100 µM (inactive); in the test with HL-60, > 100 µM (inactive); in the test on HT-29, 65.3 µM (inactive); with IGROV-1, > 100 µM (inactive); in the test with K562, > 100 µM (inactive); in the test with NCI-H23, > 100 µM (inactive). In addition, the GI50 in the test on NCI-H522 was 80.7 µM (inactive); in the test with OVCAR-8, > 100 µM (inactive); in the test on SF-295, > 100 µM (inactive); in the test on SF-539, > 100 µM (inactive); with SK-MEL-28 it was > 100 µM (inactive); in the test with SK-MEL-2 it was > 100 µM (inactive). Besides, the GI50 in the test on SK-MEL-5, in the test with SN12C, in the test on SNB-19, with SNB-75, in the test with SR and in the test with U-251 was > 100 µM (inactive) in each case. For the same compound, the GI50 in the test with UO-31 was 84.3 µM (inactive).

On to `COc1ccc(/C(Cl)=C(\C=O)c2ccc(Cl)cc2)cc1OC`, for which the GI50 in the test with A498 is 23.7 µM (inactive); with HCC 2998, 14.9 µM (inactive); in the test with HL-60 it was 2.55 µM (inactive); with HT-29, 4.97 µM (inactive); in the test with IGROV-1 it was 8.89 µM (inactive); in the test with K562, 3.69 µM (inactive). Besides, the GI50 is 3.01 µM (inactive) in the test on NCI-H23; 2.47 µM (inactive) with NCI-H522; 4.03 µM (inactive) in the test on OVCAR-8; 4.15 µM (inactive) in the test with SF-295; 9.79 µM (inactive) with SF-539; 3.71 µM (inactive) in the test with SK-MEL-2. Further, the GI50 in the test on SK-MEL-5 is 9.25 µM (inactive); with SN12C, 3.72 µM (inactive); in the test with SNB-19, 6.73 µM (inactive); in the test with SNB-75 it was 3.85 µM (inactive); in the test on SR, 2.49 µM (inactive); with U-251, 3.85 µM (inactive). The GI50 with UO-31 is 4.68 µM (inactive).

In the case of `CN(Cc1cnc2c(N)nc(N)nc2n1)c1ccc(Cl)cc1`, the GI50 was 31.7 µM (inactive) with A498; > 100 µM (inactive) in the test on HL-60; 13.7 µM (inactive) in the test on IGROV-1; > 100 µM (inactive) with K562; 34 µM (inactive) with NCI-H23; 21.5 µM (inactive) in the test with OVCAR-8. Further, the GI50 with SF-295 is 72.1 µM (inactive); in the test on SF-539, 24.3 µM (inactive); with SK-MEL-2 it was 29 µM (inactive); with SK-MEL-5 it was > 100 µM (inactive); in the test with SN12C, > 100 µM (inactive); in the test on SNB-19, 33.3 µM (inactive). For the same compound, the GI50 was 12.5 µM (inactive) with SNB-75, 62.2 µM (inactive) in the test on SR, > 100 µM (inactive) in the test on U-251 and 47.1 µM (inactive) in the test with UO-31.

Turning to `C=C1C(=O)OC2/C=C(\C)CC(O)/C=C(/CO)CC(OC(=O)/C(C)=C/C)C12` (stereo unspecified), the GI50 with A498 is 26.8 µM (inactive); with HCC 2998 it was 42.7 µM (inactive); in the test with HL-60 it was 13.3 µM (inactive); in the test on HT-29 it was 54.6 µM (inactive); with IGROV-1, 37.8 µM (inactive); with K562, 18 µM (inactive). Also, the GI50 was 27.7 µM (inactive) in the test on NCI-H23; 13 µM (inactive) with NCI-H522; 24 µM (inactive) with OVCAR-8; 163 µM (inactive) with SF-295; 29 µM (inactive) with SF-539; 14.8 µM (inactive) in the test on SK-MEL-28. The GI50 in the test on SK-MEL-2 was 51.9 µM (inactive); with SK-MEL-5 it was 14.8 µM (inactive); in the test on SN12C, 131 µM (inactive); with SNB-19, 114 µM (inactive); in the test with SNB-75 it was 133 µM (inactive); in the test with U-251, 86.1 µM (inactive). Moreover, in the test with UO-31, the GI50 was 173 µM (inactive).
